Data from patent US20230339835A1, “2,3,5-TRIMETHYL-6-NONYLCYCLOHEXA-2,5-DIENE-1,4-DIONE FOR SUPPRESSING AND TREATING ALPHA-SYNUCLEINOPATHIES, TAUOPATHIES, AND OTHER DISORDERS” (PTC THERAPEUTICS, INC., priority 2018, published 2023).
In brackets after ≈: the same amount, converted by molar mass. Marks after values point to notes of the source that are not given here.

How the values were obtained:
[1] = system: C57Bl/6 mice, MPTP-induced model of PD; assay: Mouse MPTP model of Parkinson's Disease, open field locomotor assay; format: in vivo; details: MPTP 60 mg/kg (3 x 20 mg/kg at two-hour intervals)
Excerpt: Animals. Species: Mouse. Strain: C57Bl/6. Source of Animals: Charles River. Age: 6 to 7 weeks. Sex: Male. Randomization: Animals were assigned randomly to treatment groups. Blinding of Study: Experimenters were blinded to the experimental treatments
Housing and Feeding. Acclimation/Conditioning: Not less than three days. Housing: Mice were housed on a 12 hr light/dark cycle (lights on 6:00 AM) No more than 4 mice per cage. Ventilated cage rack system. Diet: Standard rodent chow and water ad libitum.
Design Parameters. Route(s) of administration: PO. Dose Volume: PO: 5 mL/kg. Formulation(s): formulated by Melior according to directions from BioElectron. Vehicle-sesame oil (Spectrum Chemical, NF Catalog #SE130, CAS #8008-74-0). Dose Levels: 300 mg/kg. Dose Frequency: QD starting Day −2 (MPTP=Day 0) and until Day 7. Study duration: 11 days. Pretreatment time (up to 2 hrs): For Day 0 (MPTP Day): 30 min, Pretreatment time for Open Field Assay/Locomotor Activity (OFA/LMA) assay: 1 hr. Number of Groups: 3. Number of animals per group: 10. Total number of animals: 30 (in the study), 42 animals total (To ensure a proper power analysis of at least 10 animals/group, for all groups receiving MPTP, 4 additional animals were added to mitigate study impacts if there were MPTP-induced fatalities).
MPTP Treatment. MPTP was formulated in phosphate buffered saline and administered to mice three times at a dose of 20 mg/kg (1 mg/mL delivered at 20 mL/kg) at two-hour intervals (final dose of MPTP=60 mg/kg).
Locomotor activity. One day prior (baseline) and on Day 7 after MPTP administration (Day (−1) and Day 7), mice were monitored for various aspects of locomotor function using a fully automated open-field apparatus (Med-Associates, Inc). The apparatus consisted of a 10.75″×10.75″ arena enclosed in a sound-attenuated box, equipped with the fan and house light. […]
Data analysis. Data were averaged and are expressed as the average±SEM.
Data were analyzed by one-way ANOVA followed by a post-hoc tests. p-values of less than 0.05 were considered to be statistically significant from control.

[2] = Solid form stability, one week at 75% RH and 40° C.; format: physicochemical; details: 7 days, 75% relative humidity
Method: The solid form stability of the material was assessed over one week. 49.0 mg of ID-1-1 was placed inside of a foil-covered 4 mL vial, which was covered with a KimWipe. This vial was placed inside a 20 mL vial containing saturated aqueous sodium chloride. The vial was placed on a hot plate at 40° C. for 7 days, creating an atmosphere of 75% relative humidity in the system. After 7 days, the solid was sampled for HPLC (ID-4-1).
A sample of the stressed material was plated and analyzed by XRPD; the observed pattern was Pattern A. The XRPD data is shown in FIG. 16. Microscopy images of ID-4-1 were captured at 100× and 400× magnification. The images are shown in FIG. 17A (100×) and FIG. 17B (400×).

[3] = Solubility in simulated fluids and water; format: physicochemical
Method: Solubility of Pattern A and melted solid was assessed in Fasted-State Simulated Gastric Fluid (FaSSGF), Fed-State Simulated Intestinal Fluid (FeSSIF), and Fasted-State Simulated Intestinal Fluid (FaSSIF), water, and 0.5% methyl cellulose+2% Tween80 in water. Five foil-covered 4 mL vials were prepared with 11-13 mg of as-received material (ID-1-1), 10 mm stir bars were included. Five foil-covered 4 mL vials containing between 11-13 mg of C9 were melted on a hot plate at 70° C. for 10 min and cooled to room temperature for 5 min, 10 mm stir bars were included.
Slurries were prepared with the as-received material ID-1-1 (Pattern A) and melted C9, each in 2.5 mL of simulated fluids (including 0.5% methyl cellulose+2% Tween80 in water), or water. The samples containing melted active pharmaceutical ingredient (API) were sonicated briefly, as they appeared to contain clumps of material. […] For solubility analysis 1 mL of each sample was pipetted into a syringe filter, the first 0.5 mL was filtered back into the source vial and the remaining 0.5 mL was filtered into HPLC vials with low volume inserts.
The response factor calculated with the calibration points was used to determine the concentrations of API in the simulated fluids and water. Calibration samples were prepared with as-received material (ID-1-1) in ACN. The concentrations and peak areas for each calibration point were plotted and a response factor calculated for solubility assessment.
Due to high pressures observed with the UPLC column, a different column and a modified method was employed for 24 h data points with 0.5% methyl cellulose+2% Tween80 in water, and 24 h in water (ID-30-4, ID-30-9 and ID-30-10). HPLC samples of ID-30-4 and 30-9 (those containing the methyl cellulose/Tween80 mixture) were diluted 10× with ACN. These samples plus a new set of injections of the calibration points were analyzed, a new response factor was determined, and the solubility of the remaining samples was calculated (response factor: 8084.7908; R2: 0.9989).

[4] = Humidification cycling by dynamic vapor sorption (DVS); format: physicochemical
Method: As-received material (ID 1-1) was subjected to humidification cycling by dynamic vapor sorption (DVS) instrument. The material underwent a 0.01% change in mass in the 15-75% relative humidity range, and a 0.08% change in mass over the full range of 2-95% relative humidity. Following humidification cycling, the solid was analyzed by XRPD.

| XRPD pattern of stressed material [2] | impurities by HPLC in stability sample [2] | Solubility at 24 hours ([3]; 0.5% MC + 2% Tween80 (aq), Phenomenex Luna Phenyl Hexyl HPLC column and modified method) [µg/mL] | Solubility at 24 hours (mg/mL) ([3]; 0.5% MC + 2% Tween80 (aq), Phenomenex Luna Phenyl Hexyl HPLC column and modified method, listed as A) | Conc. (mg/mL) at 30 min ([3]; 0.5% MC + 2% Tween80 (aq.)) [mg/mL] | Conc. (mg/mL) at 30 min ([3]; FaSSGF) | Solubility at 24 hours (mg/mL) ([3]; FaSSGF) | Conc. (mg/mL) at 30 min ([3]; FaSSIF) [mg/mL] | Solubility at 24 hours (mg/mL) ([3]; FaSSIF) | Conc. (mg/mL) at 30 min ([3]; FeSSIF) [mg/mL] | Solubility at 24 hours ([3]; FeSSIF) [µg/mL] | Conc. (mg/mL) at 30 min ([3]; water) | Solubility at 24 hours (mg/mL) ([3]; water) | DVS Change Mass (wt. %) ([4]; 2-95% RH) | DVS Change Mass (wt. %) ([4]; 15-75% RH) | change in mass (DVS) ([4]; 15-75% relative humidity range) [%] | hygroscopicity ([4]; DVS humidification cycling) | change in mass (DVS) ([4]; full range of 2-95% relative humidity) [%] | Compound | depletion of dopamine in the striatum [1] [%] |
| --- | --- | --- | --- | --- | --- | --- | --- | --- | --- | --- | --- | --- | --- | --- | --- | --- | --- | --- | --- |
|  |  |  |  |  |  |  |  |  |  |  |  |  |  |  |  |  |  | CN1CC=C(c2ccccc2)CC1 [MPTP, 1-methyl-4-phenyl-1,2,3,6-tetrahydropyridine, reference compound] | ~74 |
| Pattern A | did not show any impurities | 310 | 0.31# mg/mL | 0.53 | BDL | BDL | 0.01 | BDL | 0.29 | 200 (≈ 724 µM) | BDL | BDL | 0.08 | 0.01 | 0.01 | not hygroscopic | 0.08 | CCCCCCCCCC1=C(C)C(=O)C(C)=C(C)C1=O [Pattern A, 2,3,5-trimethyl-6-nonylcyclohexa-2,5-diene-1,4-dione] |  |
